Entries after “also recorded” stand apart in the source; their conditions may differ.
Columns and labels:
paw of the rats = assay: Rat paw edema; assay type: in vivo, Sprague Dawley rats; settings: for degree of edema in words: 2 hours after administration, rat paw; for degree of edema, 1 hour after administration / degree of edema, 2 hours after administration / degree of edema, Immediately after administration: 0.1 ml into rat paw
Summary of the method: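 Male Sprague Dawley rats (6 weeks old, 170–200 g) received 0.1 ml of PBS or test composition into the paw. Paw thickness measured by caliper before, immediately after, and 1 or 2 h post-injection; edema graded 0–4, with injection-site skin lesions photographed.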

sole of the rat paws = assay: Measurement of skin lesion (erythema) on rat paw; assay type: in vivo, Sprague Dawley rats; settings: for skin lesion (erythema) in words: 2 hours after administration;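 on grade of skin lesion (erythema), 1 hour after administration: grades − to ++++ mean no to extremely severe erythema versus before injection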;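 on grade of skin lesion (erythema), 2 hours after administration: grades − to ++++ mean no to extremely severe erythema versus before injection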;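 on grade of skin lesion (erythema), Immediately after administration: grades − to ++++ mean no to extremely severe erythema versus before injection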
Summary of the method: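 Male Sprague Dawley rats (6 weeks, 170–200 g) received 0.1 ml test composition or PBS injected into the paw. Paw thickness measured by caliper before, immediately after, and 1 or 2 h post-injection; sole lesions photographed and graded 0–4.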

[1] = tested on: tissues of the injected area (rat paw); assay: H&E staining histological test (inflammation) of injected rat paw; assay type: in vivo, Sprague Dawley rats; settings: for degree of inflammation (H&E) in words: rats sacrificed at 3 hours, injected paw
Protocol: The tissues of the injected area were dissected, fixed with 10% formalin, and then the specimen was prepared and images were captured using an optical microscope. The degree of inflammation was evaluated as follows.

3T3-L1 adipocytes [2] = assay: Adipocyte (3T3-L1) reducing effect, MTT assay; assay type: cell-based
Protocol: Tests were performed to compare the adipocyte reducing activity of the PPC single composition and the PPC composition solubilized with bile acids. Differentiated 3T3L-1 adipocyte lines were used to observe adipocyte reduction activity, and cell viability was monitored by MTT assay. […] Materials and methods employed in the following experiments are described below. In the following, % of the composition refers to % (w/v).
The specific test methods are as follows. […] The cells were washed twice with PBS, treated with MTT reagent (50 μl) and left at 37° C. for 2 hours. After removing the supernatant, MTT formazan crystals were dissolved in DMSO and the absorbance was measured at 540 nm using a microplate reader.
The 3T3-L1 adipocyte (ATCC) was cultured in Dulbecco's modified eagle medium (DMEM) (Invitrogen) supplemented with 10% fetal bovine serum, 100 units/ml penicillin and 100 μg/ml streptomycin under the condition of 5% CO2 and 37° C. […] Subsequently, the medium was replaced with DMEM medium containing 1 μg/ml insulin (Sigma), and the culture medium was maintained and changed every 2 to 3 days until the degree of differentiation reaches maximum. If it took more than 7 days, the cells were kept in normal DMEM culture medium until starting the tests. […] After the cells were incubated for 3 hours under the condition of 37° C. and 5% CO2, the MTT solution was removed.

[3] = tested on: Caspase 3 in 3T3-L1 adipocytes; assay: Caspase 3 activity assay; assay type: cell-based; settings: 0-48 hours
Protocol: The Caspase 3 activity assay was performed with the test materials to determine whether the cell death in the result of MTT assay was due to necrosis or apoptosis. The Caspase 3 specifically increases when apoptosis occurs and is a marker of apoptosis. […] The cells were then treated with 50 ul of cell lysis buffer (10 mM Tris-HCl, 10 mM NaH2PO4/NaHPO4, pH 7.5, 130 mM NaCl, 1% Triton X-100 and 10 mM sodium pyrophosphate) and left at 4° C. for […]. The supernatant was collected by centrifugation at 1000× rpm for 1 minute, and protein quantification was performed by BCA method. The 50 μl of reaction buffer (4 mM HEPES, pH 7.5, 10% glycerol, 2 mM dithiothreitol) and 0.5 μl of 4 mM DEVD-p-NA were added to each sample and reacted at 37° C. for 1 hour. Then wavelength was measured with a […] at 405 nm.

3T3-L1 adipocytes [4] = assay: Lipolysis assay (glycerol release); assay type: cell-based; settings: 48 hours; listed as GCA single
Protocol: The glycerol activity assay was performed with the test materials to determine whether the cell death in the MTT assay was due to necrosis or lipolysis. Glycerol is a specific marker that increases when fat breaks down. Abcam Lipolysis Assay Kit (Colorimetric) was used according to the manufacturer's manual, and the method of the test was as follows: […] And then the lysis was induced. […] After adding the glycerol assay complex (50 μl) thereto, the solution was incubated at room temperature for 30 minutes. Absorbance was measured at OD 570 (using standard curve for absolute determination).

inguinal fat pad = settings: 0.2 ml s.c. once into inguinal fat pad, 8 days post-injection
[5] = Formulation stability of PPC injectable preparations: property, transparency, particle size, pH
[6] = bile acid single composition 1.0% (w/v)
[7] = bile acid single composition 2.5% (w/v)
[8] = bile acid single composition 5.0% (w/v)
[9] = bile acid single composition 7.5% (w/v)

Question: Which results are given for `C[C@H](CCC(=O)NCC(=O)O)[C@H]1CC[C@H]2[C@@H]3[C@H](O)C[C@@H]4C[C@H](O)CC[C@]4(C)[C@H]3C[C@H](O)[C@]12C` [GCA, 2-[[(4R)-4-[(3R,5S,7R,8R,9S,10S,12S,13R,14S,17R)-3,7,12-trihydroxy-10,13-dimethyl-2,3,4,5,6,7,8,9,11,12,14,15,16,17-tetradecahydro-1H-cyclopenta[a]phenanthren-17-yl]pentanoyl]amino]acetic acid]?
Answer: degree of edema in words (paw of the rats; listed as GCA 1.0%): Mild and mild; degree of edema in words (paw of the rats; listed as GCA 2.5%): moderate; degree of edema in words (paw of the rats; listed as GCA 5.0%): Moderate; degree of edema, 1 hour after administration (paw of the rats; [6]): + (mild edema [+, (the degree of swelling was 1-20% compared to before the injection)]); degree of edema, 2 hours after administration (paw of the rats; [6]): + (mild edema [+, (the degree of swelling was 1-20% compared to before the injection)]); degree of edema, Immediately after administration (paw of the rats; [6]): + (mild edema [+, (the degree of swelling was 1-20% compared to before the injection)]); degree of edema, 1 hour after administration (paw of the rats; [7]): ++ (moderate edema [++, (the degree of swelling was 20-40% compared to before the injection)]); degree of edema, 2 hours after administration (paw of the rats; [7]): ++ (moderate edema [++, (the degree of swelling was 20-40% compared to before the injection)]); degree of edema, Immediately after administration (paw of the rats; [7]): ++ (moderate edema [++, (the degree of swelling was 20-40% compared to before the injection)]); degree of edema, 1 hour after administration (paw of the rats; [8]): ++ (moderate edema [++, (the degree of swelling was 20-40% compared to before the injection)]); degree of edema, 2 hours after administration (paw of the rats; [8]): ++ (moderate edema [++, (the degree of swelling was 20-40% compared to before the injection)]); degree of edema, Immediately after administration (paw of the rats; [8]): ++ (moderate edema [++, (the degree of swelling was 20-40% compared to before the injection)]); degree of edema, 1 hour after administration (paw of the rats; [9]): ++++ (extremely severe edema [++++, (the degree of swelling was 60% or more compared to before the injection)]); degree of edema, 2 hours after administration (paw of the rats; [9]): ++++ (extremely severe edema [++++, (the degree of swelling was 60% or more compared to before the injection)]); degree of edema, Immediately after administration (paw of the rats; [9]): ++ (moderate edema [++, (the degree of swelling was 20-40% compared to before the injection)]); skin lesion (erythema) in words (sole of the rat paws; listed as GCA 1.0%): None; skin lesion (erythema) in words (sole of the rat paws; listed as GCA 2.5%): Mild; skin lesion (erythema) in words (sole of the rat paws; listed as GCA 5.0%): Mild; skin lesion (erythema) in words (sole of the rat paws; listed as GCA 7.5%): Moderate; grade of skin lesion (erythema), 1 hour after administration (sole of the rat paws; [6]): −; grade of skin lesion (erythema), 2 hours after administration (sole of the rat paws; [6]): −; grade of skin lesion (erythema), Immediately after administration (sole of the rat paws; [6]): −; grade of skin lesion (erythema), 1 hour after administration (sole of the rat paws; [7]): +; grade of skin lesion (erythema), 2 hours after administration (sole of the rat paws; [7]): +; grade of skin lesion (erythema), Immediately after administration (sole of the rat paws; [7]): +; grade of skin lesion (erythema), 1 hour after administration (sole of the rat paws; [8]): +; grade of skin lesion (erythema), 2 hours after administration (sole of the rat paws; [8]): +; grade of skin lesion (erythema), Immediately after administration (sole of the rat paws; [8]): +; grade of skin lesion (erythema), 1 hour after administration (sole of the rat paws; [9]): ++; grade of skin lesion (erythema), 2 hours after administration (sole of the rat paws; [9]): ++; grade of skin lesion (erythema), Immediately after administration (sole of the rat paws; [9]): +; Inflammation (H&E), BA % (w/v) 1.0 ([1]; bile acid single composition 1.0% (w/v), injected rat paw): +; Inflammation (H&E), BA % (w/v) 2.5 ([1]; bile acid single composition 2.5% (w/v), injected rat paw): ++; Inflammation (H&E), BA % (w/v) 5.0 ([1]; bile acid single composition 5.0% (w/v), injected rat paw): ++; Inflammation (H&E), BA % (w/v) 7.5 ([1]; bile acid single composition 7.5% (w/v), injected rat paw): ++; degree of inflammation (H&E) in words ([1]; listed as GCA 1.0%): Mild; degree of inflammation (H&E) in words ([1]; listed as GCA 2.5%): moderate; adipocyte viability / adipocyte-reducing activity (3T3-L1 adipocytes [2]; 24 to 96 hours, various concentrations): reduced adipocyte viability in time and concentration dependent manner; adipocyte-reducing effect at the same PPC concentration (3T3-L1 adipocytes [2]; after 96 hours, FIGS. 7F to 7H): lower adipocyte-reducing effect than PPC+GCA; caspase-3 activity [3]: no time or concentration-dependent change; glycerol release / cytolytic activity (3T3-L1 adipocytes [4]): slightly higher cytolytic activity than at 24 hours; also recorded: slightly higher cytolytic activity than that of 24 hours; histological change of adipocytes in fat tissue (inguinal fat pad): clear cell membrane boundary and a well-formed cell shape; inflammation at the site of administration, dermal and epidermal tissues (inguinal fat pad): inflammation was clearly observed; minimum molar ratio to PPC for a clear solution and mixed micelle of 10 nm or less [5]: 0.76; bile acid concentration at which stable injectable preparations can be made ([5]; based on PPC 5.0%): ≥ 2.2%
